Results as given in patent US20080138299A1, “Oral Pharmaceuticals or Oral Hygiene Products Comprising Licorice Flavonoid Extract” (Hawley & Hazel (BVI) Company Limited, priority 2006, published 2008).

Columns and labels:
IL-6 = assay: KB cell Luminex liquid-phase chip analysis; assay type: cell-based, human; details: KB cell supernatant, higher = stronger, test concentration not given
Description: (§1) During the experiment, the KB cell inoculated in the cultivating plate is treated with or without (control) Licochalone A. After the treatment, the supernatant of the cultivated liquid is collected and stored in −80 C refrigerator. The PGE2 in the supernatant is detected by Enzyme-linked immunsorbent assay, and Luminex multifunctional liquid-phase chip analysis system is used for the detection of GM-CSF, TNF-α, IL-1β and IL-6 (the result is shown in Table 3).
(§2) The 96-well plate is enclosed for 30 min. The fluorescent microspheres are added into the 96-well plate after dilution. Add the standard sample and the sample to be measured, stay overnight at 4° C. In the next day, the supernatant is discarded, and 50 μl GM-CSF, TNF-α, IL-1β and IL-6 antibodies are added to each hole. After rinsing 4 times, the 96-well plate is placed in a shaking table under ambient temperature to shade from light for 1 h, rinse 4 times, and add PE labeled with streptavidin and shade from light for 15 min at room temperature. Rinse 4 times, the microspheres are suspended in the rinsing buffer, and the 96-well plate is immediately placed on Luminex (Luminex Corporation, Austin, Tx.) to analyze.

TNF-α = assay: KB cell Luminex liquid-phase chip analysis; assay type: cell-based, human; details: KB cell supernatant, higher = stronger, test concentration not given
Description: as §1, §2

GM-CSF = assay: KB cell Luminex liquid-phase chip analysis; assay type: cell-based, human; details: KB cell supernatant, higher = stronger, test concentration not given
Description: as §1, §2

IL-1β = assay: KB cell Luminex liquid-phase chip analysis; assay type: cell-based, human; details: KB cell supernatant, higher = stronger, test concentration not given
Description: as §1, §2

[1] = test system: Actinobacillus actinomycetemcomitans (A. a) ATCC 43717; assay: Broth micro-dilution MIC; assay type: cell-based; details: no unit in table; dilution series 250-0.12 mg/L, ceiling 250 ppm; 37 °C, 18-24 h; smaller = stronger
Description: (§3) 3. The Inhibition Experiment of Licochalone A and Total Flavonoid Extracts of Zhangguo Licorice (Glycyrrhiza inflate Betal) on Primary Oral Pathogenic Microorganisms 3.1 The Cultivation of the Bacteria Species: Streptococcus mutans (ATCC 25175), Actinomyces naeslundii (ATCC 12104), Actinobacillus actinomycetemicomtans (ATCC 43717), Porphyromonas gingivalis (ATCC 33277), Listed as Following:
(§4) A single colony is picked from the Trypticase Digested Soybean peptone agar blood plate (TSA5B) ordinarily stored bacteria species to Trypticase Digested Soybean peptone broth (TSB), cultivated in microaerobic environment (only P.g needs anaerobic cultivation) with 95% air, 5% CO2 at 37.0° C.±1.0° C., wherein S.m is cultivated for 18-24 h, and the remaining three are cultivated for 40-48 h. Then sterile TSB is used to adjust the turbidity of the bacteria suspension to 0.5^#McFarland standard, equivalent to 1.0×10^8 CFU/mL.
(§5) After performing a series of 2-fold dilutions to the anti-bacteria pharmaceuticals, rationally inoculate with tested bacteria, and observe after incubated at 37° C. for 18-24 h, wherein the lowest pharmaceutical concentration that inhibits the growth visible to the naked eye of the tested bacteria is the minimum inhibitive concentration (MIC) of the tested pharmaceuticals to the tested bacteria. The operating steps are:
(§6) a. Preparation of the stock solution of antibacterial pharmaceutical: Prepare 1% stock solution of various antibacterial pharmaceuticals dope with 100% pure ethanol as solvent. The prepared stock solution is filtered to eliminate bacteria, and is distributed into small portions to be used. b. Range of measured concentration: the present experiment chooses 250 ppm as the ceiling measured concentration of the anti-bacteria pharmaceutical. c. Measuring method: micro-dilution method.
(§7) First add 100 μL TSB to each hole of the 96-well plate, and add 100 μL sterile anti-bacteria pharmaceutical solution which is diluted 10-folds (1000 mg/l) to each hole of the first column, then blow on each hole of the first column repeatedly for 7-8 times using multi-channel micropipet, transfer 100 μL sample to the second column after sufficiently mixing the pharmaceutical with TSB, and after similarly blowing for 7-8 times, transfer 100 μL sample to the third column, and analogously to the last column, thus the concentration of pharmaceutical is 2-fold gradiently diluted, from 500 mg/L of the first column to 0.24 mg/L of the last column (the 12th column).
(§8) The bacteria to be tested and standard bacteria are prepared as above. Dilute the bacteria solution with TSB to a bacteria content of about 10^6 CFU/mL. Then inoculate 100 μL for each hole. Thus the final diluted concentration of the anti-bacteria pharmaceutical in each line are 250, 125, 62.5 . . . 0.12 mg/L, and the final inoculation quantity is about […] or 5×10^6 bacteria each hole; the 96-well plate is placed on a microshaker and is shook for 1 min to mix the solution in each hole. The microwell plate is covered and is sealed with adhesive paper to reduce the evaporation during the incubation process and is placed in a humid box, cultivated in microaerobic environment with 95% air, 5% CO2 (or in anaerobic environment with 90% N2, 5% H2, 5% CO2) at 37.0° C.±1.0° C. for 18-24 h. The 96-well plate is placed under an enzyme-labeling instrument, and by comparing the growing characteristics of the tested bacteria with the standard bacteria, the lowest anti-bacteria pharmaceutical concentration contained in the hole without bacteria is taken as MIC.

[2] = test system: Streptococcus mutans (S. m) ATCC 25175; assay: Broth micro-dilution MIC; assay type: cell-based; details: no unit in table; dilution series 250-0.12 mg/L, ceiling 250 ppm; 37 °C, 18-24 h; smaller = stronger
Description: as §3, §4, §5, §6, §7, §8

[3] = test system: Porphyromonas gingivalis (P. g) ATCC 33277; assay: Broth micro-dilution MIC; assay type: cell-based; details: no unit in table; dilution series 250-0.12 mg/L, ceiling 250 ppm; anaerobic, 37 °C, 18-24 h; smaller = stronger
Description: as §3, §4, §5, §6, §7, §8

[4] = test system: Actinomyces naeslundii (A. n) ATCC 12104; assay: Broth micro-dilution MIC; assay type: cell-based; details: no unit in table; dilution series 250-0.12 mg/L, ceiling 250 ppm; 37 °C, 18-24 h; smaller = stronger
Description: as §3, §4, §5, §6, §7, §8

Structure (SMILES)	IL-6 (interleukin) (anti-inflammatory ability) (IL-6) [%]	TNF-α (Tumor Necrosis Factor) (anti-inflammatory ability) (TNF-α) [%]	GM-CSF (anti-inflammatory ability) (GM-CSF) [%]	IL-1β (interleukin) (anti-inflammatory ability) (IL-1β) [%]	minimum inhibitive concentration (MIC), A. a [1]	minimum inhibitive concentration (MIC), S. m [2]	minimum inhibitive concentration (MIC), P. g [3]	minimum inhibitive concentration (MIC), A. n [4]
C=CC(C)(C)c1cc(/C=C/C(=O)c2ccc(O)cc2)c(OC)cc1O [Licochalone A, 5-(1,1-Dimethylallyl)-4,4′-dihydroxy-2-methoxychalcone]	50	95	8	19	>250	7.8	1.9	7.8
Oc1cc(Cl)ccc1Oc1ccc(Cl)cc1Cl [Triclosan]	31	81	5	7	1.9	3.9	7.8	3.9
